# According to US8183262B2, “Pyridine derivatives as mGluR2 antagonists” (Hoffmann-La Roche Inc., priority 2007, dated 2012):
row,SMILES,melting point [°C]
1,"NS(=O)(=O)c1cccc(-c2cn(-c3nc(-c4ccc(F)c(F)c4)cc(C(F)(F)F)n3)cn2)c1 [Example 396, 3-{1-[4-(3,4-Difluoro-phenyl)-6-trifluoromethyl-pyrimidin-2-yl]-1H-imidazol-4-yl}-benzenesulfonamide]",241.5
2,"NS(=O)(=O)c1ccc(-c2cc(-c3nc(-c4ccc(F)cc4)cc(C(F)(F)F)n3)ccn2)s1 [Example 397, 5-{4-[4-(4-Fluoro-phenyl)-6-trifluoromethyl-pyrimidin-2-yl]-pyridin-2-yl}-thiophene-2-sulfonic acid amide]",282
3,"NS(=O)(=O)c1cccc(-c2cc(-c3nc(-c4ccc(F)cc4)cc(C(F)(F)F)n3)ccn2)c1 [Example 398, 3-{4-[4-(4-Fluoro-phenyl)-6-trifluoromethyl-pyrimidin-2-yl]-pyridin-2-yl}-benzenesulfonamide]",239.5
4,"NS(=O)(=O)c1ccc(-c2cc(-c3nc(-c4ccc(F)c(F)c4)cc(C(F)(F)F)n3)ccn2)s1 [Example 399, 5-{4-[4-(3,4-Difluoro-phenyl)-6-trifluoromethyl-pyrimidin-2-yl]-pyridin-2-yl}-thiophene-2-sulfonic acid amide]",281
5,"NS(=O)(=O)c1cccc(-c2cc(-c3nc(-c4ccc(F)c(F)c4)cc(C(F)(F)F)n3)ccn2)c1 [Example 400, 3-{4-[4-(3,4-Difluoro-phenyl)-6-trifluoromethyl-pyrimidin-2-yl]-pyridin-2-yl}-benzenesulfonamide]",233.5
6,"O=S(=O)(NCc1ccccc1)c1cccc(-c2cc(-c3nc(-c4ccc(C(F)(F)F)cc4)cc(C(F)(F)F)n3)ccn2)c1 [Example 405, N-Benzyl-3-{4-[4-trifluoromethyl-6-(4-trifluoromethyl-phenyl)-pyrimidin-2-yl]-pyridin-2-yl}-benzenesulfonamide]",202.5
7,"O=S(=O)(NCCc1ccccc1)c1cccc(-c2cc(-c3nc(-c4ccc(C(F)(F)F)cc4)cc(C(F)(F)F)n3)ccn2)c1 [Example 406, N-Phenethyl-3-{4-[4-trifluoromethyl-6-(4-trifluoromethyl-phenyl)-pyrimidin-2-yl]-pyridin-2-yl}-benzenesulfonamide]",201

# Results, then the molecule that gave them:
row,melting point [°C],SMILES
1,225,"CN(C)S(=O)(=O)c1cccc(-c2cc(-c3nc(-c4ccc(C(F)(F)F)cc4)cc(C(F)(F)F)n3)ccn2)c1 [Example 401, N,N-Dimethyl-3-{4-[4-trifluoromethyl-6-(4-trifluoromethyl-phenyl)-pyrimidin-2-yl]-pyridin-2-yl}-benzenesulfonamide]"
2,174,"CNS(=O)(=O)c1cccc(-c2cc(-c3nc(-c4ccc(C(F)(F)F)cc4)cc(C(F)(F)F)n3)ccn2)c1 [Example 402, N-Methyl-3-{4-[4-trifluoromethyl-6-(4-trifluoromethyl-phenyl)-pyrimidin-2-yl]-pyridin-2-yl}-benzenesulfonamide]"
3,144,"CC(C)CN(C)S(=O)(=O)c1cccc(-c2cc(-c3nc(-c4ccc(C(F)(F)F)cc4)cc(C(F)(F)F)n3)ccn2)c1 [Example 403, N-Isobutyl-N-methyl-3-{4-[4-trifluoromethyl-6-(4-trifluoromethyl-phenyl)-pyrimidin-2-yl]-pyridin-2-yl}-benzenesulfonamide]"
4,144,"CCCN(C)S(=O)(=O)c1cccc(-c2cc(-c3nc(-c4ccc(C(F)(F)F)cc4)cc(C(F)(F)F)n3)ccn2)c1 [Example 404, N-Methyl-N-propyl-3-{4-[4-trifluoromethyl-6-(4-trifluoromethyl-phenyl)-pyrimidin-2-yl]-pyridin-2-yl}-benzenesulfonamide]"
5,133.5,"O=S(=O)(NCC1CC1)c1cccc(-c2cc(-c3nc(-c4ccc(C(F)(F)F)cc4)cc(C(F)(F)F)n3)ccn2)c1 [Example 408, N-Cyclopropylmethyl-3-{4-[4-trifluoromethyl-6-(4-trifluoromethyl-phenyl)-pyrimidin-2-yl]-pyridin-2-yl}-benzenesulfonamide]"
